Measured values reported in article PMC6277434, “Discovery of a potent HMG-CoA reductase degrader that eliminates statin-induced reductase accumulation and lowers cholesterol” (Nature Communications, 2018).
Several values for one entry are separate records, joined by “and”; a condition that tells them apart may be missing. Equal values may be shown once.

Assays:
HMGCR (TM1-8)-GFP [1] = target: T1, HMGCR (TM1-8)-GFP (Cricetulus griseus, UniProt P00347); experiment: HMGCR (TM1-8)-GFP fluorescent assay (high-content imaging) in CHG cells; settings: 16 h, DMSO-treated cells = 100
T1 sequence (P00347 1-346): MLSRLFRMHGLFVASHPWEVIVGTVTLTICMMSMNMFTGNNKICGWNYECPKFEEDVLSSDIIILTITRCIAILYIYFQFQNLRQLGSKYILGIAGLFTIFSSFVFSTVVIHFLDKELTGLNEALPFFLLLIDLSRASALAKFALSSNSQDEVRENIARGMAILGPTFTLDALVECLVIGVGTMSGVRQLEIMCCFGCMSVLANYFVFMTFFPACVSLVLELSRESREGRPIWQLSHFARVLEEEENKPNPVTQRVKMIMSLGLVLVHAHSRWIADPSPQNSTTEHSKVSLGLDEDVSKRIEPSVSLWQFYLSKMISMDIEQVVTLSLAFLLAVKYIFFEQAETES
Procedure: (§2) We thus generated a cell line stably expressing the transmembrane domain of HMGCR fused with green fluorescent protein (GFP) as a reporter (HMGCR (TM1-8)-GFP) (Fig. 2a).
(§3) CHO-7 cells were transfected with pCMV-HMGCR (TM1-8)-GFP using FuGENE HD. Twenty-four hours, cells were switched to medium B supplemented with 5% FBS and selected in the presence of 1 mg ml^−1 G418 for 2 weeks. Surviving colonies were isolated and confirmed for GFP expression by immunoblotting and immunofluorescence. The resulting CHO-7/HMGCR (TM1-8)-GFP stable cell line (CHG) was maintained in medium B supplemented with 5% FBS and 200 μg ml^−1 G418.
(§4) CHG cells were treated as described in figure legends. Briefly, cells were seeded at day 0 in 96-well black plate (3904, Corning) at a density of 1.5 × 10^4 cells per well, in medium B containing with 5% LPDS. Day 1, corresponding compounds were added as figure legends described in medium B with 5% LPDS, 1 μM lovastatin, 50 μM sodium mevalonate for 16 h. Then cells were fixed with 4% paraformaldehyde for 20 min, washed with PBS for three times, and stained with 2 μg ml^−1 Hoechst 33342.
(§5) The fluorescent images (GFP and Hoechst channel) were captured using an Operatta High-Content Imaging System (PerkinElmer) with a ×20 objective. The cytoplasmic GFP fluorescence was measured with the Harmony Software (PerkinElmer). Five random selected filed per well were captured, and about 3000 cells were used to determine the mean cytoplasmic GFP fluorescent intensity per cell after subtracting background GFP intensity. The average GFP intensity of DMSO-treated cells was defined as 100.

LXR signaling pathway [2] = system: LXR signaling pathway; set-up: method as in earlier work; settings: previous studies ref 2 (Yang, C. et al. J. Biol. Chem. 281, 27816-27826 (2006)); cited from earlier work
HMGCR (TM1-8)-GFP [3] = target: T1, HMGCR (TM1-8)-GFP
Procedure: as §2, §3, §4, §5

HMGCR (TM1-8)-GFP [4] = target: T1, HMGCR (TM1-8)-GFP; experiment: Immunoblotting of overexpressed HMGCR (TM1-8)-GFP in CHG cells; assay type: cell-based, hamster; set-up: corresponding to the amino acids from 1 to 346 of hamster HMGCR; expressed in transfected cells; settings: 16 h, DMSO = 100
Procedure: Fig. 2 A reporting system that measures HMGCR degradation. a Schematic of the HMGCR (TM1-8)-GFP fusion protein. […] Data are from three independent experiments and presented as mean ± SD. Source data are provided as a Source Data File.
(§1) Cells were harvested and homogenized in the RIPA buffer (50 mM Tris-HCl, pH 8.0, 150 mM NaCl, 2 mM MgCl2, 1.5% NP-40, 0.1% SDS, and 0.5% sodium deoxycholate) supplemented with protease cocktail inhibitor, 10 μM MG-132, 10 μg ml^−1 leupeptin and 1 mM phenylmethylsulfonyl fluoride. The protein concentrations of lysates were determined using BCA method (Beyotime). Samples were mixed with the membrane protein solubilization buffer (62.5 mM Tris-HCl, pH 6.8, 15% SDS, 8 M urea, 10% glycerol, and 100 mM DTT) plus the 4× loading buffer (150 mM Tris-HCl, pH 6.8, 12% SDS, 30% glycerol, 6% 2-mercaptoethanol, and 0.02% bromophenol blue) and incubated for 30 min at 37 °C. Proteins were resolved by SDS-PAGE and transferred to nitrocellulose membranes (GE Healthcare). Immnoblots were blocked with 5% non-fat milk in TBS containing 0.075% Tween-20 (TBST) and probed with indicated antibodies overnight at 4 °C. After washing in TBST for five times, blots were incubated with HRP-conjugated secondary antibodies for 2 h at room temperature. Immunoreactivity was developed with Clarity Western ECL chemiluminescent substrates (170–5061, Bio-Rad). Western blot images were captured by Amersham Imager 600 (GE Healthcare), and integrated optical intensities of each band were quantified by Image-Pro Plus 6 software (Media Cybernetics). Uncropped blots are shown in Supplementary Figs. 9–13.

HMGCR = target: T2, HMGCR (Cricetulus griseus, UniProt P00347); experiment: Immunoblotting of endogenous HMGCR protein in CHO-7 (or CHG) cells; assay type: cell-based, Chinese hamster; settings: 16 h; for endogenous HMGCR protein level (immunoblot), mean: CHG cells, DMSO = 100
T2 construct: endogenous in cells; host or cells: CHO-7, CHG, SRD-13A, SRD-15
T2 sequence (P00347 1-887): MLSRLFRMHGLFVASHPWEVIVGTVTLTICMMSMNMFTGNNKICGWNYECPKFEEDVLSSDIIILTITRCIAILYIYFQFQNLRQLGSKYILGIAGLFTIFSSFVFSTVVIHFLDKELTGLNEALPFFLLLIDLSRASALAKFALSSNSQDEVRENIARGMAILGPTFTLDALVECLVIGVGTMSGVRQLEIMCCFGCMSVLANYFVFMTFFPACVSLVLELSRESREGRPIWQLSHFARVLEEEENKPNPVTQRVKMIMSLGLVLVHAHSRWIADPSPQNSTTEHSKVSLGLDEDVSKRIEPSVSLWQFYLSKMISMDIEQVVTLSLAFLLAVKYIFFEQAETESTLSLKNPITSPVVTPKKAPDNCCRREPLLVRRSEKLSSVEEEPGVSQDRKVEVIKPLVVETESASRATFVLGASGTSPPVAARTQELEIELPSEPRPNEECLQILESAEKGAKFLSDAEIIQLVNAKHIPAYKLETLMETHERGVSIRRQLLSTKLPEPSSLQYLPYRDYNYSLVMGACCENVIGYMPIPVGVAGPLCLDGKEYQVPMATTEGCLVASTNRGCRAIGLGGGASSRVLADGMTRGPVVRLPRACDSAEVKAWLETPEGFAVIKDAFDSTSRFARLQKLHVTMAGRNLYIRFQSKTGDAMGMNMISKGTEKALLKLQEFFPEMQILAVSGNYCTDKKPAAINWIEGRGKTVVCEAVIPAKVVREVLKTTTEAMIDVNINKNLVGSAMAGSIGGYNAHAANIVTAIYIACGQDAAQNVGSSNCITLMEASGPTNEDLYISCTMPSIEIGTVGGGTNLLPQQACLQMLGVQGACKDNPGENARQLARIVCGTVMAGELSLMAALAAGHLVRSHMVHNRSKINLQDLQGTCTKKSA
Procedure: CHO-7 (Chinese hamster ovary cell, a clone of CHO-K1 cell line selected for growth in LPDS) and Huh7 (a human hepatocellular carcinoma cell line), SRD-13A (a Scap-deficient CHO-7 cell line) and SRD-15 (an Insig-1 and Insig-2-deficient CHO-7 cell line) were generous gifts from Russell Debose-Boyd at UT Southwestern Medical Center, USA. All cells were grown in a monolayer at 37 °C with 5% CO2. Huh7 cells were maintained in medium A supplemented with 10% FBS. CHO-7 and SRD-15 cells were maintained in medium B supplemented with 5% FBS. SRD-13A cells were maintained in medium B with 5% FBS, 5 μg ml^−1 cholesterol, 1 mM sodium mevalonate, 10 μM sodium oleate. No cell lines used in this study were found in the database of commonly misidentified cell lines that is maintained by ICLAC and NCBI Biosample. The cell lines have not been authenticated recently. No test for mycoplasma contamination was performed.
as §1

LXR signaling pathway [5] = experiment: RT-qPCR of LXR target genes (SREBP-1c, ABCA1, ABCG8) in Huh-7 cells; assay type: cell-based, human; settings: 16 h
Procedure: Cells were treated as described in corresponding figure legends, then total RNA was extracted from cells or mouse livers using TRI Reagent (T9424, Sigma-Aldrich). Equal amounts of RNA from cells or mice receiving the same treatment were pooled were used for cDNA synthesis with oligo dT and reverse transcriptase MLV (Promega). Gene expression was analyzed by quantitative real-time PCR on a Stratagene Mx30005PTM Q-PCR Systems. The primers used were listed in Supplementary Tables 2–4. […]
pathway. a-c Huh-7 cells were treated with indicated compounds for 16 h and then harvested for total RNA isolation and RT-qPCR. Cells treated with LXR agonist T0901317 w ere used as positive controls. The relative mRNA levels of SREBP -1c (a), ABCA1 (b) and ABCG8 (c) were quantified . GAPDH was the reference gene. The relative mRNA level in DMSO-treated cells was defined as 1. Data are from 3 independent experiments and presented as mean ± SD.
(1 picture or pasted object on this page, not shown here)

Compound: CC(C)CCC[C@@H](C)[C@H]1CC[C@@]2(C)C3=C(CC[C@]12C)[C@@]1(C)CC[C@H](O)C(C)(C)[C@@H]1CC3 [24,25-DHL, 24,25-dihydrolanosterol, reference compound]
- HMGCR (TM1-8)-GFP fluorescent intensity, mean (HMGCR (TM1-8)-GFP [1]; 0.001 uM): 100
- HMGCR (TM1-8)-GFP fluorescent intensity, mean (HMGCR (TM1-8)-GFP [1]; 0.0078 uM): 100.168
- HMGCR (TM1-8)-GFP fluorescent intensity, mean (HMGCR (TM1-8)-GFP [1]; 0.023 uM): 100
- HMGCR (TM1-8)-GFP fluorescent intensity, mean (HMGCR (TM1-8)-GFP [1]; 0.078 uM): 97.2588
- HMGCR (TM1-8)-GFP fluorescent intensity, mean (HMGCR (TM1-8)-GFP [1]; 0.234 uM): 80.6542
- HMGCR (TM1-8)-GFP fluorescent intensity, mean (HMGCR (TM1-8)-GFP [1]; 2.34 uM): 45.713
- HMGCR (TM1-8)-GFP fluorescent intensity, mean (HMGCR (TM1-8)-GFP [1]; 15.6 uM): 10.4985
- HMGCR (TM1-8)-GFP fluorescent intensity, mean (HMGCR (TM1-8)-GFP [1]; 31.2 uM): 5
- activation of LXR (LXR signaling pathway [2]): no effect
- EC50 (HMGCR (TM1-8)-GFP [3]): ~1.5 µM and 1.5 µM
- overexpressed HMGCR (TM1-8)-GFP protein level (anti-GFP immunoblot), mean (HMGCR (TM1-8)-GFP [4]; 0.3 uM): 87.2697
- overexpressed HMGCR (TM1-8)-GFP protein level (anti-GFP immunoblot), mean (HMGCR (TM1-8)-GFP [4]; 1 uM): 51.2487
- overexpressed HMGCR (TM1-8)-GFP protein level (anti-GFP immunoblot), mean (HMGCR (TM1-8)-GFP [4]; 3 uM): 6.898
- endogenous HMGCR protein level (immunoblot), mean (HMGCR; 0.3 uM): 73.3548
- endogenous HMGCR protein level (immunoblot), mean (HMGCR; 1 uM): 35.9866
- endogenous HMGCR protein level (immunoblot), mean (HMGCR; 3 uM): 7.195
- EC50 (HMGCR; CHO-7 cells, read-out: EC50 to decrease endogenous HMGCR (dose–response immunoblotting)): 1.6 µM
- expression of LXR target genes (SREBP-1c, ABCA1 and ABCG8) mRNA (LXR signaling pathway [5]): did not activate the LXR target genes
